Results reported in patent publication US20230365592A1 (Agios Pharmaceuticals, Inc., priority 2022, published 2023).

Target: T1, human PAH with the R408W mutation (Homo sapiens, UniProt P00439, R408W)
T1 construct: expressed in transfected cells
T1 sequence (P00439 1-452 R408W): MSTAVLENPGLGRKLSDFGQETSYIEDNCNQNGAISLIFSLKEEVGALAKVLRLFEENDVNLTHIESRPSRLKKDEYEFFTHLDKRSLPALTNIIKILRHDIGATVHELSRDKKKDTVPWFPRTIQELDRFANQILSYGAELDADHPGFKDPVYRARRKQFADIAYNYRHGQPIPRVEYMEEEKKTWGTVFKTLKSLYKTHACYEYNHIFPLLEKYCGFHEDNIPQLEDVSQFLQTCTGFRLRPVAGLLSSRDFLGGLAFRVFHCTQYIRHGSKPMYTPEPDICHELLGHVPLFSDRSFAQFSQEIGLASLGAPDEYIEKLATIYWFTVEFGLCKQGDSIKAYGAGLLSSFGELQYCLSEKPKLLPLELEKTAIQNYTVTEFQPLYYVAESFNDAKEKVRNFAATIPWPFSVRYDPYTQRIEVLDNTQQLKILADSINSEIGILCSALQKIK
Assay: Cell Based Phenylalanine Flux Assay;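 also: after compound treatment, cells received sepiapterin plus isotope-labelled Phenylalanine for 4 hours, then labelled Tyrosine in the medium was quantified, 10-point 2-fold dilution series run in duplicate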
Settings: A375 cells expressing human PAH R408W; 24 hrs compound incubation; 13C-Tyrosine by LC-MS; average where tested multiple times; read-out: AC50

AC50, < 0.5 µM:
O=C(c1oc(-c2ccccn2)nc1C1CC1)N1CCc2[nH]cnc2[C@H]1c1cc2c(F)cccn2n1 [Example 2118, (S)-(4-cyclopropyl-2-(pyridin-2-yl)oxazol-5-yl)(4-(4-fluoropyrazolo[1,5-a]pyridin-2-yl)-1,4,6,7-tetrahydro-5H-imidazo(4,5-c]pyridin-5-yl)methanone]
Cc1cccn2nc([C@@H]3c4nc[nH]c4CCN3C(=O)c3oc(-c4ccccn4)nc3C3CC3)cc12 [Example 2120, (S)-(4-cyclopropyl-2-(pyridin-2-yl)oxazol-5-yl)(4-(4-methylpyrazolo[1,5-a]pyridin-2-yl)-1,4,6,7-tetrahydro-5H-imidazo[4,5-c]pyridin-5-yl)methanone]
O=C(c1oc(-c2ccccn2)nc1C1CC1)N1CCc2[nH]cnc2[C@H]1c1cc2c(C(F)F)cccn2n1 [Example 2122, (S)-(4-cyclopropyl-2-(pyridin-2-yl)oxazol-5-yl)(4-(4-(difluoromethyl)pyrazolo[1,5-a]pyridin-2-yl)-1,4,6,7-tetrahydro-5H-imidazo[4,5-c]pyridin-5-yl)methanone]
Fc1ccc(-c2nnc(N3CCc4[nH]cnc4[C@H]3c3cc4cccc(C(F)(F)F)n4n3)o2)cc1 [Example 2129, (S)-2-(4-fluorophenyl)-5-(4-(7-(trifluoromethyl)pyrazolo[1,5-a]pyridin-2-yl)-1,4,6,7-tetrahydro-5H-imidazo[4,5-c]pyridin-5-yl)-1,3,4-oxadiazole]
Fc1ccc(-c2nnc(N3CCc4[nH]cnc4[C@H]3c3cc4cccc(C(F)F)n4n3)o2)cc1 [Example 2131, (S)-2-(4-(7-(difluoromethyl)pyrazolo[1,5-a]pyridin-2-yl)-1,4,6,7-tetrahydro-5H-imidazo[4,5-c]pyridin-5-yl)-5-(4-fluorophenyl)-1,3,4-oxadiazole]
Fc1cccc(F)c1-c1nnc(N2CCc3[nH]cnc3[C@H]2c2cc3cccc(C(F)(F)F)n3n2)o1 [Example 2133, (S)-2-(2,6-difluorophenyl)-5-(4-(7-(trifluoromethyl)pyrazolo[1,5-a]pyridin-2-yl)-1,4,6,7-tetrahydro-5H-imidazo[4,5-c]pyridin-5-yl)-1,3,4-oxadiazole]
Fc1cccc(N2CCc3[nH]cnc3[C@H]2c2cc3ccccn3n2)n1 [Example 2135, (S)-5-(6-fluoropyridin-2-yl)-4-(pyrazolo[1,5-a]pyridin-2-yl)-4,5,6,7-tetrahydro-1H-imidazo[4,5-c]pyridine]
FC(F)c1cccc2cc([C@@H]3c4nc[nH]c4CCN3c3ccc(C(F)(F)F)cn3)nn12 [Example 2138, (S)-4-(7-(difluoromethyl)pyrazolo[1,5-a]pyridin-2-yl)-5-(5-(trifluoromethyl)pyridin-2-yl)-4,5,6,7-tetrahydro-1H-imidazo[4,5-c]pyridine]
O=C(c1cnc(C2CC2)o1)N1CCc2[nH]cnc2[C@H]1c1cc2c(C(F)(F)F)cccn2n1 [Example 2140, (S)-(2-cyclopropyloxazol-5-yl)(4-(4-(trifluoromethyl)pyrazolo[1,5-a]pyridin-2-yl)-1,4,6,7-tetrahydro-5H-imidazo[4,5-c]pyridin-5-yl)methanone]
CC(C)(C)c1ncc(C(=O)N2CCc3[nH]cnc3[C@H]2c2cc3c(C(F)(F)F)cccn3n2)o1 [Example 2142, (S)-(2-(tert-butyl)oxazol-5-yl)(4-(4-(trifluoromethyl)pyrazolo[1,5-a]pyridin-2-yl)-1,4,6,7-tetrahydro-5H-imidazo[4,5-c]pyridin-5-yl)methanone]
CC(C)(F)c1ncc(C(=O)N2CCc3[nH]cnc3[C@H]2c2cc3c(C(F)(F)F)cccn3n2)o1 [Example 2144, (S)-(2-(2-fluoropropan-2-yl)oxazol-5-yl)(4-(4-(trifluoromethyl)pyrazolo[1,5-a]pyridin-2-yl)-1,4,6,7-tetrahydro-5H-imidazo[4,5-c]pyridin-5-yl)methanone]
COc1cccn2nc([C@@H]3c4nc[nH]c4CCN3c3nnc(C(F)F)o3)cc12 [Example 2151, (S)-2-(difluoromethyl)-5-(4-(4-methoxypyrazolo[1,5-a]pyridin-2-yl)-1,4,6,7-tetrahydro-5H-imidazo[4,5-c]pyridin-5-yl)-1,3,4-oxadiazole]
FC(F)Oc1cccn2nc([C@@H]3c4nc[nH]c4CCN3c3nnc(C(F)F)o3)cc12 [Example 2153, (S)-2-(4-(4-(difluoromethoxy)pyrazolo[1,5-a]pyridin-2-yl)-1,4,6,7-tetrahydro-5H-imidazo[4,5-c]pyridin-5-yl)-5-(difluoromethyl)-1,3,4-oxadiazole]

AC50, 1 to 5 µM:
Cn1cc(-c2nc(C3CC3)c(C(=O)N3CCc4[nH]cnc4[C@@H]3c3cc4c(C(F)F)cccn4n3)o2)cn1 [Example 2115, (R)-(4-cyclopropyl-2-(1-methyl-1H-pyrazol-4-yl)oxazol-5-yl)(4-(4-(difluoromethyl)pyrazolo[1,5-a]pyridin-2-yl)-1,4,6,7-tetrahydro-5H-imidazo[4,5-c]pyridin-5-yl)methanone]
O=C(c1oc(-c2ccccn2)nc1C1CC1)N1CCc2[nH]cnc2[C@@H]1c1cc2c(F)cccn2n1 [Example 2119, (R)-(4-cyclopropyl-2-(pyridin-2-yl)oxazol-5-yl)(4-(4-fluoropyrazolo[1,5-a]pyridin-2-yl)-1,4,6,7-tetrahydro-5H-imidazo[4,5-c]pyridin-5-yl)methanone]
O=C(c1oc(-c2ccccn2)nc1C1CC1)N1CCc2[nH]cnc2[C@@H]1c1cc2c(C(F)F)cccn2n1 [Example 2123, (R)-(4-cyclopropyl-2-(pyridin-2-yl)oxazol-5-yl)(4-(4-(difluoromethyl)pyrazolo[1,5-a]pyridin-2-yl)-1,4,6,7-tetrahydro-5H-imidazo[4,5-c]pyridin-5-yl)methanone]
O=C(c1oc(-c2ccccn2)nc1C1CC1)N1CCc2[nH]cnc2[C@@H]1c1cc2c(C(F)(F)F)cccn2n1 [Example 2125, (R)-(4-cyclopropyl-2-(pyridin-2-yl)oxazol-5-yl)(4-(4-(trifluoromethyl)pyrazolo[1,5-a]pyridin-2-yl)-1,4,6,7-tetrahydro-5H-imidazo[4,5-c]pyridin-5-yl)methanone]
Fc1cccc(F)c1-c1nnc(N2CCc3[nH]cnc3[C@@H]2c2cc3cccc(C(F)(F)F)n3n2)o1 [Example 2132, (R)-2-(2,6-difluorophenyl)-5-(4-(7-(trifluoromethyl)pyrazolo[1,5-a]pyridin-2-yl)-1,4,6,7-tetrahydro-5H-imidazo[4,5-c]pyridin-5-yl)-1,3,4-oxadiazole]
Fc1cccc(N2CCc3[nH]cnc3[C@@H]2c2cc3ccccn3n2)n1 [Example 2134, (R)-5-(6-fluoropyridin-2-yl)-4-(pyrazolo[1,5-a]pyridin-2-yl)-4,5,6,7-tetrahydro-1H-imidazo[4,5-c]pyridine]

AC50, 0.5 to 1 µM:
Cc1cccn2nc([C@@H]3c4nc[nH]c4CCN3c3nnc(-c4cnccn4)o3)cc12 [Example 2157, (S)-2-(4-(4-methylpyrazolo[1,5-a]pyridin-2-yl)-1,4,6,7-tetrahydro-5H-imidazo[4,5-c]pyridin-5-yl)-5-(pyrazin-2-yl)-1,3,4-oxadiazole]
FC(F)(F)c1cccn2nc([C@@H]3c4nc[nH]c4CCN3c3nnc(-c4ccncn4)o3)cc12 [Example 2162, (S)-2-(pyrimidin-4-yl)-5-(4-(4-(trifluoromethyl)pyrazolo[1,5-a]pyridin-2-yl)-1,4,6,7-tetrahydro-5H-imidazo[4,5-c]pyridin-5-yl)-1,3,4-oxadiazole]

AC50, > 5 µM:
Cc1cccn2nc([C@H]3c4nc[nH]c4CCN3c3ccccn3)cc12 [Example 2126, (R)-4-(4-methylpyrazolo[1,5-a]pyridin-2-yl)-5-(pyridin-2-yl)-4,5,6,7-tetrahydro-1H-imidazo[4,5-c]pyridine]
Fc1ccc(-c2nnc(N3CCc4[nH]cnc4[C@@H]3c3cc4cccc(C(F)F)n4n3)o2)cc1 [Example 2130, (R)-2-(4-(7-(difluoromethyl)pyrazolo[1,5-a]pyridin-2-yl)-1,4,6,7-tetrahydro-5H-imidazo[4,5-c]pyridin-5-yl)-5-(4-fluorophenyl)-1,3,4-oxadiazole]
FC(F)(F)c1ccc(N2CCc3[nH]cnc3[C@@H]2c2cc3cccc(Cl)n3n2)nc1 [Example 2137, (R)-4-(7-chloropyrazolo[1,5-a]pyridin-2-yl)-5-(5-(trifluoromethyl)pyridin-2-yl)-4,5,6,7-tetrahydro-1H-imidazo[4,5-c]pyridine]
CC(C)c1cccn2nc([C@H]3c4nc[nH]c4CCN3c3ccc(C(F)(F)F)cn3)cc12 [Example 2149, (R)-4-(4-isopropylpyrazolo[1,5-a]pyridin-2-yl)-5-(5-(trifluoromethyl)pyridin-2-yl)-4,5,6,7-tetrahydro-1H-imidazo[4,5-c]pyridine]
COc1cccn2nc([C@H]3c4nc[nH]c4CCN3c3nnc(C(F)F)o3)cc12 [Example 2150, (R)-2-(difluoromethyl)-5-(4-(4-methoxypyrazolo[1,5-a]pyridin-2-yl)-1,4,6,7-tetrahydro-5H-imidazo[4,5-c]pyridin-5-yl)-1,3,4-oxadiazole]
FC(F)(F)c1cccn2nc([C@H]3c4nc[nH]c4CCN3c3nnc(-c4ccncn4)o3)cc12 [Example 2163, (R)-2-(pyrimidin-4-yl)-5-(4-(4-(trifluoromethyl)pyrazolo[1,5-a]pyridin-2-yl)-1,4,6,7-tetrahydro-5H-imidazo[4,5-c]pyridin-5-yl)-1,3,4-oxadiazole]
